Assay results from patent US20260207623A1, “USE OF ESTETROL IN HEPATICALLY IMPAIRED PATIENTS” (ESTETRA SRL, priority 2022, published 2026).

Legend:
[1] = test system: post-menopausal women; assay: Example 2 dose-finding study: Hot Flush Weekly Weighted Score; type: in vivo, human
Description: Further, the terms “Hot Flush Weekly Weighted Score”, as used herein, corresponds to a score taking into account frequency and severity which is calculated by using the severity score (as calculated above): [(1×No. of mild VMS)+(2×No. of moderate VMS)+(3×No. of severe VMS)] during a 7 day period.
All treatments (Estetrol, hereinafter E4 as monohydrate, [2.5 mg, 5 mg, 10 mg, 15 mg] capsule) were administered once daily (QD) per os for at least 12 consecutive weeks until the last biological assessments (Day 91 maximum) had been performed.
A further analysis of the results was thus prepared, where data from these two doses were grouped with the placebo dose and compared to the 10 mg and 15 mg estetrol monohydrate doses.

[2] = test system: post-menopausal women; assay: Example 2: number of patients with endometrial biopsies; type: in vivo, human
Description: If during the course of the trial, a double layer endometrial thickness≥15 mm was detected on TVUS and/or abnormal uterine bleeding (in the judgement of the gynecologist in light of the estrogen therapy) was reported by a non-hysterectomied person, they underwent an endometrial biopsy and was treated with progestin (10 mg dydrogesterone) QD until end of Week 11 in a sequential way (i.e., a 14 day progestin treatment period followed by a 14 day progestin treatment pause) in addition to the E4/placebo treatment. […] If an abnormal uterine bleeding occurred again after a first normal endometrial biopsy, a thorough gynaecological examination and a TVUS were performed. If necessary in the judgment of the gynecologist, a second endometrial biopsy was performed.
1. Number of Patients with Biopsies

[3] = test system: post-menopausal women; assay: Example 2: adverse events (AEs, TEAEs) per treatment group; type: in vivo, human
From the text: This is confirmed by the following statistical analysis. Using a Poisson regression model with a random effect for the patient and treatment group as a covariate to model the count of TEAEs in the different treatment groups, it can be shown that there is no statistical difference between the treatment groups (p value of 0.099). Second, a chi-square test was used to assess if the prevalence of patients reporting TEAEs in each treatment group was similar. No statistical difference was found between the treatment groups (p value of 0.575).

[4] = test system: C-Terminal Telopeptide (CTX-1); assay: Example 2 section F: C-terminal telopeptide (CTX-1), marker of bone resorption, at 15 mg and 20 mg daily doses; type: in vivo, human
Description: In order to better assess the potential for increasing the daily dose beyond the minimum effective dose of 15 mg estetrol monohydrate daily, a number of parameters were followed in a study where estetrol monohydrate was administered at the increased dose of 20 mg per day.
6. C-Terminal Telopeptide (CTX-1) (Ng/L)
CTX-1 is a specific marker of bone resorption.

[5] = test system: healthy women; assay: Example 2 section G: adverse events after single and 14-day multiple oral doses of Estetrol monohydrate/Drospirenone 15 mg/3 mg and 30 mg/6 mg; type: in vivo, human; conditions: single dose then once daily for 14 days
Description: The following treatments were administered to healthy women (between 15-50 years inclusive) according to the randomization code. • Placebo (n=16); • Group 15 mg: a single oral dose of 15 mg Estetrol monohydrate/3 mg Drospirenone (n=10) followed, after a washout of 14 days, by multiple oral doses of 15 mg Estetrol monohydrate/3 mg Drospirenone (n=10) once daily for 14 days; • Group 30 mg: a single oral dose of 30 mg Estetrol monohydrate/6 mg Drospirenone (n=10), followed, after a washout of 14 days, by multiple oral doses of 30 mg Estetrol monohydrate/6 mg Drospirenone (n=10) once daily for 14 days.
Adverse events were recorded from first admission until completion of the follow-up visit (between 37 to 42 days after first day of treatment).

[6] = test system: post-menopausal women; assay: Example 3: menopause-specific Quality of Life (MENQOL) questionnaire; type: in vivo, human; conditions: compared to placebo treatment
[7] = mass balance study in humans; cited from earlier work
[8] = 15 mg Estetrol monohydrate/3 mg Drospirenone
[9] = 30 mg Estetrol monohydrate/6 mg Drospirenone

SMILES: C[C@]12CC[C@@H]3c4ccc(O)cc4CC[C@H]3[C@@H]1[C@@H](O)[C@@H](O)[C@@H]2O [E4 monohydrate, estetrol monohydrate]
- Hot Flush Weekly Weighted Score, relative change (% from baseline), Mean ([1]; 2.5 mg daily, week 0): 0%
- Hot Flush Weekly Weighted Score, relative change (% from baseline), Mean ([1]; 2.5 mg daily, week 1): −22%
- Hot Flush Weekly Weighted Score, relative change (% from baseline), Mean ([1]; 2.5 mg daily, week 2): −32%
- Hot Flush Weekly Weighted Score, relative change (% from baseline), Mean ([1]; 2.5 mg daily, week 3): −43%
- Hot Flush Weekly Weighted Score, relative change (% from baseline), Mean ([1]; 2.5 mg daily, week 4): −47%
- Hot Flush Weekly Weighted Score, relative change (% from baseline), Mean ([1]; 2.5 mg daily, week 5): −48%
- Hot Flush Weekly Weighted Score, relative change (% from baseline), Mean ([1]; 2.5 mg daily, week 6): −51%
- Hot Flush Weekly Weighted Score, relative change (% from baseline), Mean ([1]; 2.5 mg daily, week 7): −53%
- Hot Flush Weekly Weighted Score, relative change (% from baseline), Mean ([1]; 2.5 mg daily, week 8): −55%
- Hot Flush Weekly Weighted Score, relative change (% from baseline), Mean ([1]; 2.5 mg daily, week 9): −57%
- Hot Flush Weekly Weighted Score, relative change (% from baseline), Mean ([1]; 2.5 mg daily, week 10): −57%
- Hot Flush Weekly Weighted Score, relative change (% from baseline), Mean ([1]; 2.5 mg daily, week 11): −56%
- Hot Flush Weekly Weighted Score, relative change (% from baseline), Mean ([1]; 2.5 mg daily, week 12): −57%
- Hot Flush Weekly Weighted Score, relative change (% from baseline), Mean ([1]; 5 mg daily, week 0): 0%
- Hot Flush Weekly Weighted Score, relative change (% from baseline), Mean ([1]; 5 mg daily, week 1): −22%
- Hot Flush Weekly Weighted Score, relative change (% from baseline), Mean ([1]; 5 mg daily, week 2): −32%
- Hot Flush Weekly Weighted Score, relative change (% from baseline), Mean ([1]; 5 mg daily, week 3): −37%
- Hot Flush Weekly Weighted Score, relative change (% from baseline), Mean ([1]; 5 mg daily, week 4): −43%
- Hot Flush Weekly Weighted Score, relative change (% from baseline), Mean ([1]; 5 mg daily, week 5): −46%
- Hot Flush Weekly Weighted Score, relative change (% from baseline), Mean ([1]; 5 mg daily, week 6): −56%
- Hot Flush Weekly Weighted Score, relative change (% from baseline), Mean ([1]; 5 mg daily, week 7): −56%
- Hot Flush Weekly Weighted Score, relative change (% from baseline), Mean ([1]; 5 mg daily, week 8): −56%
- Hot Flush Weekly Weighted Score, relative change (% from baseline), Mean ([1]; 5 mg daily, week 9): −58%
- Hot Flush Weekly Weighted Score, relative change (% from baseline), Mean ([1]; 5 mg daily, week 10): −59%
- Hot Flush Weekly Weighted Score, relative change (% from baseline), Mean ([1]; 5 mg daily, week 11): −61%
- Hot Flush Weekly Weighted Score, relative change (% from baseline), Mean ([1]; 5 mg daily, week 12): −60%
- Hot Flush Weekly Weighted Score, relative change (% from baseline), Mean ([1]; 10 mg daily, week 0): 0%
- Hot Flush Weekly Weighted Score, relative change (% from baseline), Mean ([1]; 10 mg daily, week 0, section B analysis): 0%
- Hot Flush Weekly Weighted Score, relative change (% from baseline), Mean ([1]; 10 mg daily, week 1): −20%
- Hot Flush Weekly Weighted Score, relative change (% from baseline), Mean ([1]; 10 mg daily, week 1, section B analysis): −20%
- Hot Flush Weekly Weighted Score, relative change (% from baseline), Mean ([1]; 10 mg daily, week 2): −35%
- Hot Flush Weekly Weighted Score, relative change (% from baseline), Mean ([1]; 10 mg daily, week 3): −47%
- Hot Flush Weekly Weighted Score, relative change (% from baseline), Mean ([1]; 10 mg daily, week 4): −54%
- Hot Flush Weekly Weighted Score, relative change (% from baseline), Mean ([1]; 10 mg daily, week 5): −58%
- Hot Flush Weekly Weighted Score, relative change (% from baseline), Mean ([1]; 10 mg daily, week 7): −64%
- Hot Flush Weekly Weighted Score, relative change (% from baseline), Mean ([1]; 10 mg daily, week 7, section B analysis): −64%
- Hot Flush Weekly Weighted Score, relative change (% from baseline), Mean ([1]; 10 mg daily, week 8, section B analysis): −66%
- Hot Flush Weekly Weighted Score, relative change (% from baseline), Mean ([1]; 10 mg daily, week 9): −67%
- Hot Flush Weekly Weighted Score, relative change (% from baseline), Mean ([1]; 10 mg daily, week 9, section B analysis): −66%
- Hot Flush Weekly Weighted Score, relative change (% from baseline), Mean ([1]; 10 mg daily, week 10, section B analysis): −68%
- Hot Flush Weekly Weighted Score, relative change (% from baseline), Mean ([1]; 10 mg daily, week 11): −69%
- Hot Flush Weekly Weighted Score, relative change (% from baseline), Mean ([1]; 10 mg daily, week 11, section B analysis): −68%
- Hot Flush Weekly Weighted Score, relative change (% from baseline), Mean ([1]; 10 mg daily, week 12): −70%
- Hot Flush Weekly Weighted Score, relative change (% from baseline), Mean ([1]; 10 mg daily, week 12, section B analysis): −69%
- Hot Flush Weekly Weighted Score, relative change (% from baseline), Mean ([1]; 15 mg daily, week 0): 0%
- Hot Flush Weekly Weighted Score, relative change (% from baseline), Mean ([1]; 15 mg daily, week 0, section B analysis): 0%
- Hot Flush Weekly Weighted Score, relative change (% from baseline), Mean ([1]; 15 mg daily, week 1): −19%
- Hot Flush Weekly Weighted Score, relative change (% from baseline), Mean ([1]; 15 mg daily, week 1, section B analysis): −22%
- Hot Flush Weekly Weighted Score, relative change (% from baseline), Mean ([1]; 15 mg daily, week 2): −43%
- Hot Flush Weekly Weighted Score, relative change (% from baseline), Mean ([1]; 15 mg daily, week 3, section B analysis): −56%
- Hot Flush Weekly Weighted Score, relative change (% from baseline), Mean ([1]; 15 mg daily, week 4, section B analysis): −66%
- Hot Flush Weekly Weighted Score, relative change (% from baseline), Mean ([1]; 15 mg daily, week 5, section B analysis): −70%
- Hot Flush Weekly Weighted Score, relative change (% from baseline), Mean ([1]; 15 mg daily, week 6): −74%
- Hot Flush Weekly Weighted Score, relative change (% from baseline), Mean ([1]; 15 mg daily, week 6, section B analysis): −72%
- Hot Flush Weekly Weighted Score, relative change (% from baseline), Mean ([1]; 15 mg daily, week 8): −78%
- Hot Flush Weekly Weighted Score, relative change (% from baseline), Mean ([1]; 15 mg daily, week 8, section B analysis): −76%
- Hot Flush Weekly Weighted Score, relative change (% from baseline), Mean ([1]; 15 mg daily, week 9): −80%
- Hot Flush Weekly Weighted Score, relative change (% from baseline), Mean ([1]; 15 mg daily, week 9, section B analysis): −78%
- Hot Flush Weekly Weighted Score, relative change (% from baseline), Mean ([1]; 15 mg daily, week 10): −79%
- Hot Flush Weekly Weighted Score, relative change (% from baseline), Mean ([1]; 15 mg daily, week 11): −80%
- Hot Flush Weekly Weighted Score, relative change (% from baseline), Mean ([1]; 15 mg daily, week 11, section B analysis): −79%
- Hot Flush Weekly Weighted Score, relative change (% from baseline), Mean ([1]; 15 mg daily, week 12): −82%
- Hot Flush Weekly Weighted Score, relative change (% from baseline), Mean ([1]; 15 mg daily, week 12, section B analysis): −81%
- Number of patients with biopsies ([2]; 2.5 mg daily): 4
- Number of patients with biopsies ([2]; 5 mg daily): 5
- Number of patients with biopsies ([2]; 10 mg daily): 11
- Number of patients with biopsies ([2]; 15 mg daily): 9
- requirements for biopsies ([2]; 15 mg per day group compared with 10 mg per day group): less requirements for biopsies
- Count of Treatment Emergent AEs (TEAEs) ([3]; 2.5 mg daily): 61
- Percentage of patients with TEAE leading to Study Discontinuation ([3]; 2.5 mg daily): 1.9
- Percentage of patients with severe TEAE ([3]; 2.5 mg daily): 7.7
- Count of Treatment Emergent AEs (TEAEs) ([3]; 5 mg daily): 63
- Percentage of patients with TEAE leading to Study Discontinuation ([3]; 5 mg daily): 6.4
- Percentage of patients with severe TEAE ([3]; 5 mg daily): 10.6
- Count of Treatment Emergent AEs (TEAEs) ([3]; 10 mg daily): 95
- Percentage of patients with TEAE leading to Study Discontinuation ([3]; 10 mg daily): 5.6
- Percentage of patients with severe TEAE ([3]; 10 mg daily): 7.4
- average AEs per patient among patients who had AEs ([3]; 10 mg group): 3.2 AEs per patient
- Count of Treatment Emergent AEs (TEAEs) ([3]; 15 mg daily): 82
- Percentage of patients with TEAE leading to Study Discontinuation ([3]; 15 mg daily): 4.1
- Percentage of patients with severe TEAE ([3]; 15 mg daily): 6.1
- average AEs per patient among patients who had AEs ([3]; 15 mg group): 2.6 AEs
- bone resorption (CTX-1) ([4]; 15 mg daily dose): small decrease of bone resorption
- bone resorption (CTX-1) ([4]; 20 mg daily dose, after 28 days of treatment, compared with 15 mg): more pronounced
- TEAEs by relationship to study drug, Related, subjects reporting one or more AE [5, 8]: 50%
- TEAEs by relationship to study drug, Total, subjects reporting one or more AE [5, 8]: 80%
- TEAEs by relationship to study drug, Unrelated, subjects reporting one or more AE [5, 8]: 50%
- TEAEs by relationship to study drug, Related, subjects reporting one or more AE [5, 9]: 50%
- TEAEs by relationship to study drug, Total, subjects reporting one or more AE [5, 9]: 70%
- TEAEs by relationship to study drug, Unrelated, subjects reporting one or more AE [5, 9]: 50%
- total MENQOL scores [6]: significantly improved

SMILES: C[C@]12CC[C@@H]3c4ccc(O)cc4CC[C@H]3[C@@H]1[C@@H](O)[C@@H](O)[C@@H]2O [E4, 1,3,5 (10)-estratrien-3,15alpha, 16alpha, 17beta-tetrol]
- contribution of hepatic elimination to the overall elimination [7]: approximately 20%
